For orientation: IC50 means the concentration at which inhibition is half-maximal.

SMILES strings stand for the structures. Like-named read-outs stand apart in the source and are kept apart here.

The target of test [1] is T1, MAO-A (Rattus norvegicus, UniProt P21396).
T1 construct: human and rat tissue to obtain the isolated forms of monoamine oxidase A and B; from tissue
T1 sequence (P21396 1-526): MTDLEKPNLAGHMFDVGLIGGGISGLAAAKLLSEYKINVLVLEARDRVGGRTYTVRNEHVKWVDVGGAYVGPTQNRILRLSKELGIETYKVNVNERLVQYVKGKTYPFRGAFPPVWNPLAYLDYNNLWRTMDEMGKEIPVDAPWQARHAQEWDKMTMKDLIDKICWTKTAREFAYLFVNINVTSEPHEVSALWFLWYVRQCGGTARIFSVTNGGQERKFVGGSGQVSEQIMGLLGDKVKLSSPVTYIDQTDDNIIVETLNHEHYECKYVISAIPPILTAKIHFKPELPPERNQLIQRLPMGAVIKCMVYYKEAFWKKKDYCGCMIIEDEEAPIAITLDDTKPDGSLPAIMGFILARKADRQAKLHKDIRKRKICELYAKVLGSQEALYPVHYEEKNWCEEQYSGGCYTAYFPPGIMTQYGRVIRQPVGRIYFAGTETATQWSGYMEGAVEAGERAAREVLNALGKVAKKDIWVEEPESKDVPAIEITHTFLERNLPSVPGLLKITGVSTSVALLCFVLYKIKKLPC
Put plainly: biochemical. In kind it is biochemical, Sprague-Dawley rat. The procedure: (§1) The mitochondrial portion of Sprague-Dawley rat was used to determine the MAO-A and MAO-B activity.
(§2) Determinations were made of the comparative MAO-A and MAO-B activity inhibition curves of the various compounds under study at time 0 and 30 min. by measuring the remaining activity to 5-HT and PEA as substrates.

Test [2] deals with T2, MAO-B (Homo sapiens, UniProt P27338).
T2 construct: performed using homogenated human cerebral cortex obtained from autopsies; from tissue; host or cells: post-mortem human cerebral cortex homogenate
T2 sequence (P27338 1-520): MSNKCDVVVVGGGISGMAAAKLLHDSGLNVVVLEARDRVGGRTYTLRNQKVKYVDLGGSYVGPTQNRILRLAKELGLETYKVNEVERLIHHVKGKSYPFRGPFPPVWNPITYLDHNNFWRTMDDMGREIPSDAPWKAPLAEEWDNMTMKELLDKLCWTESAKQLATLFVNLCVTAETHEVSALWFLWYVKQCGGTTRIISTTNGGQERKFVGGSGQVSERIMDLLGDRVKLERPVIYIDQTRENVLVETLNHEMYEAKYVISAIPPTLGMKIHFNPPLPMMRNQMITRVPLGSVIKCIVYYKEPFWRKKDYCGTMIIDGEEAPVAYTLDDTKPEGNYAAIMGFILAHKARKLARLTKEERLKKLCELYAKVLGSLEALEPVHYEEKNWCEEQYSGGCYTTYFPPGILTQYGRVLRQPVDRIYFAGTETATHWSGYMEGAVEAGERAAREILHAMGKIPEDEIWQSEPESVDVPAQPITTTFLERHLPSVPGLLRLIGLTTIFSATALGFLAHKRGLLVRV
Nature of the test: MAO-B inhibition in homogenated human cerebral cortex. In kind it is biochemical. The text has this:
(§3) They were provided by Dr. Fco Javier González Oliván (Forensic Anatomic Institute of the Hospital Clínico Provincial in Barcelona).

In test [3] the target is T3, MAO-B (Rattus norvegicus, UniProt P19643).
T3 construct: from tissue; host or cells: Sprague-Dawley rat liver, mitochondrial fraction
T3 sequence (P19643 1-520): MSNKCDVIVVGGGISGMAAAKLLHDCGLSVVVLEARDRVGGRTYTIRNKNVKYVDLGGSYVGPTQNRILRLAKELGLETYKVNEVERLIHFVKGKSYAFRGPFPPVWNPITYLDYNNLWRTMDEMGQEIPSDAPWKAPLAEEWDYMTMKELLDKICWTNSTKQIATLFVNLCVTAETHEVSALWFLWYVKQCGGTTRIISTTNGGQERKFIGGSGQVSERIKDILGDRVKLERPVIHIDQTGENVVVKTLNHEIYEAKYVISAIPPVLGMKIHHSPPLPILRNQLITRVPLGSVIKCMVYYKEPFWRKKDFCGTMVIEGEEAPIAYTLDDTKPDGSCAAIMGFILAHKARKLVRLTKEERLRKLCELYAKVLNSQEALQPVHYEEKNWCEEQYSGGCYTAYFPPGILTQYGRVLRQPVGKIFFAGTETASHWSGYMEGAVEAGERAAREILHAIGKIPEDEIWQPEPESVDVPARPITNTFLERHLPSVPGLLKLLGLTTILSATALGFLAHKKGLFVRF
Nature of the test: MAO-B inhibition, mitochondrial portion of rat (IC50, time dependence, irreversibility), substrate PEA. The following applies: for IC50: MAO-B (lines B..), substrate PEA, rat mitochondria. In kind it is biochemical, Sprague-Dawley rat. The procedure:
as §1, §2

Test [4] has as its target T4, dopamine carrier (Homo sapiens, UniProt Q01959).
T4 construct: This assay was carried out in purified synaptosomes of human caudate; from tissue; host or cells: post-mortem human caudate, purified synaptosomes
Put plainly: Dopamine carrier inhibition in purified synaptosomes of human caudate. Particulars: human caudate synaptosomes, dopamine (DA) 0.1 µM; read-out: IC50(max). In kind it is biochemical. The procedure:
This assay was carried out in purified synaptosomes of human caudate obtained using the same method as described by Rodríguez et al. 1987 Biochem Pharmac 36, 974-976.
The studies were carried out with the same inhibitors used in the rat tissue. The dopamine (DA) concentration was 0.1 µM, a value chosen from the kinetic constants obtained.

The subject of test [5] is ibotenic acid. Put plainly: Protection against the neurotoxicity of ibotenic acid (brain acetylcholine). In kind it is in vivo, Sprague-Dawley rats. Particulars: homogenised rat brain; 3 mg/Kg i.p. 2 h before intracerebroventricular ibotenic acid; ibotenic acid alone 3%; depending on the dose. The procedure:
One group of Sprague-Dawley rats was treated with compound FA-73 (3 mg/Kg, i.p.) followed two hours later by an stereotaxic injection of ibotenic acid into the cerebral ventricles at a dose that would induce an Alzheimer type of pathology. After sacrificing the animals, determinations were made of the acetylcholine (AC) in the homogenised brains.

Test [6] addresses T5, MAO-A (Homo sapiens, UniProt P21397).
T5 construct: performed using homogenated human cerebral cortex obtained from autopsies; from tissue; host or cells: post-mortem human cerebral cortex homogenate
T5 sequence (P21397 1-527): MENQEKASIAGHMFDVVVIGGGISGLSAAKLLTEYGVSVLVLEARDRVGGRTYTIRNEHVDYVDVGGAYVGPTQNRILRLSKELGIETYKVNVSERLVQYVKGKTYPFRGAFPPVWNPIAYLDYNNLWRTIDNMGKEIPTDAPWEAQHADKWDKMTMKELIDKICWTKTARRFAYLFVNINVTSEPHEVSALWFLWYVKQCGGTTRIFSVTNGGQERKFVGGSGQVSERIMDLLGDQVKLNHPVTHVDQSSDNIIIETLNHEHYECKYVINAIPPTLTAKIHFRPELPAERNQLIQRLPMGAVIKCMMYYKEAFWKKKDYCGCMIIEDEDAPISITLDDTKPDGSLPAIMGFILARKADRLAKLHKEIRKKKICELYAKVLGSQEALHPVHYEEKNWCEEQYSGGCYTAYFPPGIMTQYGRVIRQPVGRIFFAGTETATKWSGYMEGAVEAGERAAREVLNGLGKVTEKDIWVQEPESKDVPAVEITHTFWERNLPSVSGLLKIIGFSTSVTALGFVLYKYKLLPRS
Nature of the test: MAO-A inhibition in homogenated human cerebral cortex. The format is biochemical.
Source text: as §3

T4 sequence (Q01959 whole entry): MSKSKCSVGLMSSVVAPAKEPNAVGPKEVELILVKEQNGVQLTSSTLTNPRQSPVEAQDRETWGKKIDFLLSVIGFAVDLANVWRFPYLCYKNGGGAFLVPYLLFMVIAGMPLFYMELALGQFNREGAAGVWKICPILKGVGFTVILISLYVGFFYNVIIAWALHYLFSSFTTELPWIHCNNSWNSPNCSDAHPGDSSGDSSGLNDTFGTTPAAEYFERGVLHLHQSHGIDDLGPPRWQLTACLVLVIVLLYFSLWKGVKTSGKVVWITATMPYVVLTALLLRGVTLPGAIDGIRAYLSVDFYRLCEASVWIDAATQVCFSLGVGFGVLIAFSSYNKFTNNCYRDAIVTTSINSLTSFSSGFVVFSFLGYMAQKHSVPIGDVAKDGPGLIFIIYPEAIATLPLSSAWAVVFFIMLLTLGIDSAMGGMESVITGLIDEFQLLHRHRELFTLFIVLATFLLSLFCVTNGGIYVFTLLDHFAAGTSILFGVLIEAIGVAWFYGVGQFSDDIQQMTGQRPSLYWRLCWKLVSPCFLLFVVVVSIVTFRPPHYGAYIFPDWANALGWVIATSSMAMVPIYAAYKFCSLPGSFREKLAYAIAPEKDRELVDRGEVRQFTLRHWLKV

In the case of `C#CCNCc1cc2cc(OCc3ccccc3)ccc2[nH]1` [FA-73], the IC50 in test [1] came out at 15800 nM; in test [1] (read-out: IC50 30 min., MAO-A (lines A..), substrate 5-HT, 30 min incubation, rat mitochondria) it was 1250 nM; in test [2], 200 nM; in test [3] (IC50 0 min, 0 min incubation), 100 nM; in test [3] (IC50 30 min., 30 min incubation), 15 nM; in test [4] it was 360 nM. The compound also returned an IC50 in test [6] of 20000 nM. Further, the “dependence of the inhibition on the incubation time” value in test [1] (MAO-A) and in test [3] (MAO-B) was “drop in the formation of product as a function of the time of incubation” each time. Moreover, the “irreversibility of the inhibition process” value in test [1] (MAO-A, inhibitor concentrations close to the IC50) was “irreversibility”; in test [3] (MAO-B, inhibitor concentrations close to the IC50), “irreversibility”. Besides, the acetylcholine level entry in test [5] is “up to 85 % of the control”.
